In one series the test system is FBXW7/c-Jun interaction. The experiment in a line: Immunoprecipitation, ubiquitination and FBXW7/c-Jun interaction. The class given is cell-based, human. The text has this: To investigate whether the ubiquitination of c-Jun is suppressed through the inhibition of c-Jun and FBXW7 binding by DGG200064, c-Jun immunoprecipitation was done to observe protein–protein interaction (Figure 4). E3 ligase, such as FBXW7, binds the protein to the ubiquitin chain through covalent bonds and rapidly degrades the protein through 26S proteasome. When treated with MG132 as a proteasome inhibitor, the ubiquitination of c-Jun increased compared to both control HCT116 and DLD1 cells. In contrast, the c-Jun ubiquitination was inhibited by DGG200064. The binding between c-Jun and FBXW7 was reduced with DGG200064 treatment. The FBXW7 protein, also known as CDC4, is a component of the SCF complex ubiquitin ligase and is known as a modulator of several substrates including cyclin E, c-Myc, c-Jun, and Notch. To check the selectivity of DGG200064 towards FBXW7 substrates, the change of c-Jun, cyclin E, and c-Myc by DGG200064 was analyzed. […] Cyclin E immunoprecipitation was done to test whether the ubiquitination of cyclin E by FBXW7 is inhibited by DGG200064 in HCT116 (Figure S2b, Supplementary Materials). There were no changes in cyclin E ubiquitination with DGG200064 treatment.
To identified ubiquitination of c-Jun by DGG200064, HCT116 cells were treated with/without MG132 (10 μM) for 6h, DGG200064 (50 nM) for 18 h. The cell lysate was prepared using RIPA buffer for immunoprecipitation. Each lysate was mixed with antibodies (1 μg/mL) of c-Jun or MYC at 4 °C overnight in immunoprecipitation buffer containing 50 mM Tris-Cl,150 mM NaCl, 1 mM EDTA, 0.5% Triton X-100, pH 7.4, and reacted with 10 μL of protein A/G beads UltraLink Resin (50:50 resin: buffer slurry condition) (Peirce, #35133) for 2 h on RT for precipitation. After reaction and centrifugation at 3000 rpm for 3 min, the immunoprecipitated samples were washed with 500 μL of immunoprecipitation buffer by tapping and centrifuged. The washing was repeated five times before western blotting.

The nature of the next series: logP determination. It counts as physicochemical. The text has this: Table 4 Physicochemical Properties of the Lead Compounds 7c. | column: 7c

What is called logP is the decadic logarithm of the partition coefficient of the neutral form, usually between octanol and water. Low values mean a more hydrophilic compound, high ones a more lipophilic compound. In the case of `COc1cc(OC)cc(N2CCN(C(=O)Nc3nc4sccc4nc3OC)CC2)c1` [Compound 7c, 4-(3,5-Dimethoxyphenyl)-N-(2-methoxythieno[2,3-b]pyrazin-3-yl)piperazine-1-carboxamide], the “cyclin E ubiquitination” value in the series with FBXW7/c-Jun interaction (HCT116, cyclin E immunoprecipitation) is on record as “no changes”. In the series on FBXW7/c-Jun interaction (HCT116 and DLD1, 50 nM, 18 h, c-Jun immunoprecipitation), the “binding between c-Jun and FBXW7” value is given as “reduced”. Moreover, the c-Jun ubiquitination entry in the series on FBXW7/c-Jun interaction (HCT116 and DLD1, DGG200064 50 nM 18 h, MG132 10 μM 6 h) is reported as “inhibited”. In “logP determination”, this molecule gave a logP of 2.63.

For the origin of these results see publication PMC9143821, “Design and Synthesis of a Novel 4-aryl-N-(2-alkoxythieno [2,3-b]pyrazine-3-yl)-4-arylpiperazine-1-carboxamide DGG200064 Showed Therapeutic Effect on Colon Cancer through G2/M Arrest” (Pharmaceuticals, 2022).
